The values that follow come from article PMC11220827 (Frontiers in Pharmacology, 2024).

Structures are written as SMILES. Several values for one entry are separate records, joined by “and”; a condition that tells them apart may be missing. Equal entries are not always repeated. Entries after “also recorded” stand apart in the source; their conditions may differ. Where two headings read alike, the source gives them in different places.

The term inhibition denotes the change of the read-out against control, counted positive when it falls.

Data set [1] has as its target T1, ERα receptor (Homo sapiens, UniProt P03372).
Protocol: (§1) using the U2-OS based CALUX cytotox bioassay. The cytotoxicity of each test chemical was assessed using the U2-OS based cytotoxicity CALUX bioassay. Concentrations causing >20% reduction of luminescence were considered cytotoxic.
(§2) cytotoxicity (relative induction in the cytotoxicity CALUX bioassay > 80%) were used for final
evaluation of analysis results.
(§3) induction in the cytotox CALUX bioassay > 80%) were used for final evaluation of analysis results.
(§4) All analysis results were expressed in molar (M) final in well.
(§5) For determination of the (anti-)ERα, (anti-)AR and (anti-)TRβ CALUX activities, CALUX cells were
(§6) seeded in assay medium. Following exposure of the CALUX cells to serial dilutions of the
(§7) compounds in triplicate for 24 h, the induction of luciferase production was quantified by measuring
(§8) luminescence following addition of the substrate luciferin. For antagonist assays, a fixed
(§9) concentration of assay agonist was present in each well, to generate a basal signal. On each plate, a
(§10) complete calibration curve for each respective bioassay was also analysed using the relevant reference
compounds. For the analyses in the presence of rat liver S9, 0.03% (v/v) of PB/BNF induced rat liver […]
Relative light units (RLUs) of the CALUX assays were analysed as follows. […]
(§11) effect concentrations (LOECs) and PC50 concentrations were determined; LOEC is defined as the […]
For the next data set, the system named is THRα. Details: method as in ToxCast. Conditions: ref ToxCast; cited from earlier work.
For data set [2], the target named is T2, Estrogen ERα (h) (Homo sapiens, UniProt P03372). Conditions: pharmacology profiling; LOEC = 10% of maximum reference compound activity.
T2 sequence (P03372 whole entry): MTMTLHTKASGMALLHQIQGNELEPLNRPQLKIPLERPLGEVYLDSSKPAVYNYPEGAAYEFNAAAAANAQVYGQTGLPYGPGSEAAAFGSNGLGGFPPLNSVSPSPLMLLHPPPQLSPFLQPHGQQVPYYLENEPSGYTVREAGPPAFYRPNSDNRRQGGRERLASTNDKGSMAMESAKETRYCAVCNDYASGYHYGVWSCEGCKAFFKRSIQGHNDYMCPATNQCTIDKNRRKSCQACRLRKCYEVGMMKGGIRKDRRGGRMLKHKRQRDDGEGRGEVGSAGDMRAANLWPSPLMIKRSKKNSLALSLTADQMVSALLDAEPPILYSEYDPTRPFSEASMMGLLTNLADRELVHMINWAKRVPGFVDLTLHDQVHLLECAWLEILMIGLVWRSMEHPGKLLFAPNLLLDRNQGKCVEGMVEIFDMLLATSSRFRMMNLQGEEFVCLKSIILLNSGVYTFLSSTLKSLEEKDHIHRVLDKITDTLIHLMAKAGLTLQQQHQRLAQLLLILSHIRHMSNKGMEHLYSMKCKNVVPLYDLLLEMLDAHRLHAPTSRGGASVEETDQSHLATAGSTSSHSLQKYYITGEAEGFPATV
The target of data set [3] is T1, ERα receptor. This is another data set of the same source.
Another data set addresses EGFR Human RTK Kinase (Homo sapiens, UniProt P00533). Nature of the data set: biochemical. Conditions: read-out: EGFR Human RTK Kinase Enzyme activity: % inhibition @10 µM.
The conditions of data set [4]: for BER, Cmax, total CI5%: PoD 10 nM.
Description: For human exposure, the aim is to estimate a safe dose when used in a body lotion or face cream. […] Therefore, metabolism was considered by incorporating a model to characterize the rate of metabolism and then fitted it to the metabolism measured in ex vivo viable skin.
An additional safety factor of 3.3 was applied to account for intra-individual variability.
The target in data set [5] is T2, Estrogen ERα (h). Nature of the data set: biochemical. As to conditions: read-out: Estrogen ERα (h) (agonist RL): % inhibition @10 µM.
For data set [6] the following is noted: in vivo; cited from earlier work.
The conditions of data set [7]: at 25°C, in vitro; ref Nan et al. (2014); cited from earlier work.
For data set [8], the system named is mice. As to conditions: oral administration; ref SCCS 2022; cited from earlier work.
The target of a further data set is Transthyretin (TTR) (Homo sapiens, UniProt P02766).
Data set [9] addresses T3, human thyroid peroxidase (hTPO) (Homo sapiens, UniProt P07202).
T3 sequence (P07202 19-933): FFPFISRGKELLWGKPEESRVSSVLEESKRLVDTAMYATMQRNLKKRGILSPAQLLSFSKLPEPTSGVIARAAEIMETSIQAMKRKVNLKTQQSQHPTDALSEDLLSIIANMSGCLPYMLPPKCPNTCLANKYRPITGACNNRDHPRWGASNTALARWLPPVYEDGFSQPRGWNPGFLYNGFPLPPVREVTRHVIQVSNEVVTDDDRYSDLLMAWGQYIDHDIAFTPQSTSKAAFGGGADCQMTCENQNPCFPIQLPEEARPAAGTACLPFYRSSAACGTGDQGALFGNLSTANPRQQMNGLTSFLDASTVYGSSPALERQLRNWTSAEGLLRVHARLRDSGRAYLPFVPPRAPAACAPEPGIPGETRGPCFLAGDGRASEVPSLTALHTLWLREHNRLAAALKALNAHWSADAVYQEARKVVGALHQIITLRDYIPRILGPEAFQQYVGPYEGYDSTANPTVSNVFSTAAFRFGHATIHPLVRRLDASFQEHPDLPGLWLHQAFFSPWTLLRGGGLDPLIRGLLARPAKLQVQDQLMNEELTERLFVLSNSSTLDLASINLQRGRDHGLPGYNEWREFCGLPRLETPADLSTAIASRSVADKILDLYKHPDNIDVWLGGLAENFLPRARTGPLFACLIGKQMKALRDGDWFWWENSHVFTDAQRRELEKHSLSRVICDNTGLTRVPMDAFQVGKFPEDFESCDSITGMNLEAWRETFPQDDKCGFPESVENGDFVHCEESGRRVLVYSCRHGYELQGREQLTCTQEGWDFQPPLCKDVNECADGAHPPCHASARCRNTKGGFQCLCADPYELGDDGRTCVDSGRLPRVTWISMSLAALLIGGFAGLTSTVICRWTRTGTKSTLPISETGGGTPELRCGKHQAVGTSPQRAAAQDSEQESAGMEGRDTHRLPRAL
Protocol: hTPO was derived from Nthy-ori 3-1 cells. Cell lysate containing hTPO in Glycine-NaOH buffer (pH
9.0) was incubated for 30 minutes at 37°C in the presence of serial dilutions of the compounds in
(§12) DMSO (1% compound stock in incubation mixture).
was measured on a Berthold luminometer.
(§13) Preincubation with rat liver S9 fraction
(§14) To assess the effect of metabolism on the activity of the test
compound for these assays, preincubations with rat liver S9 were performed.

Another data set deals with rats. Conditions: cited from earlier work.
In a further data set the test system is dogs. As to conditions: male and female dogs; ref McClain et al. 2005; cited from earlier work.
For data set [10], the system named is Syrian Hamster Embryo (SHE) cells. As to conditions: ref SCCS 2022; cited from earlier work.
The subject of data set [11] is mice. As to conditions: in the diet; ref SCCS 2022; cited from earlier work.
Data set [12] addresses T4, TRβ (Homo sapiens, UniProt P10828).
T4 sequence (P10828 1-461): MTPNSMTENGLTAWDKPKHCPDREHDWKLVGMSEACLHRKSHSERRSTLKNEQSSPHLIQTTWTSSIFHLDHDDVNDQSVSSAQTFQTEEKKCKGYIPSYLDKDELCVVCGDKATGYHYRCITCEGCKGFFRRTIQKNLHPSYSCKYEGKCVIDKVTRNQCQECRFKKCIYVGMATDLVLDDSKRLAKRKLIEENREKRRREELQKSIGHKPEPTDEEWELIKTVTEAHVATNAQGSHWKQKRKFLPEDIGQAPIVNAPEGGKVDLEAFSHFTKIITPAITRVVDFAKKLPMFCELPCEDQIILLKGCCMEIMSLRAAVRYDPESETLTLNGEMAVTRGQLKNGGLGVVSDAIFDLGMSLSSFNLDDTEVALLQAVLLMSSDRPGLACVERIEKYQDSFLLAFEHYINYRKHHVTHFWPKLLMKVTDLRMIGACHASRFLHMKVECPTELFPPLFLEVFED
Nature of the data set: TRβ CALUX assay (thyroid).
Protocol: as §1, §2
evaluation of analysis results.
as §3, §4, §5, §6, §7, §8, §9, §10
(§15) compounds. For the analyses in the presence of rat liver S9, 0.03% (v/v) of PB/BNF induced rat liver
(§16) S9 mix (including NADPH and an NADPH-regenerating system) was added to the cells directly after
(§17) addition of the compounds, which remained there for the duration of the exposure period (24 h) (van
(§18) Relative light units (RLUs) of the CALUX assays were analysed as follows. For agonist assays,
(§19) background values (exposure to DMSO only) were subtracted, and the maximum activity of the
(§20) assay’s reference compound was set to 100%. For antagonist assays, the basal signal (exposure to fixed concentration of agonist only) was set to 100%. Activity of the samples was scaled accordingly,
(§21) resulting in expression of the data as “percentage of maximum reference response”. Graphs were
(§22) generated using the statistical software package GraphPad Prism V5.03. Using these graphs, lowest
(§23) effect concentrations (LOECs) and PC50 concentrations were determined; LOEC is defined as the
(§24) maximum reference compound activity for agonist assays, and 20% of the maximum reference
(§25) compound activity for antagonist assays. The PC50 is defined as the concentration where the activity
(§26) of the sample equals 50% of the maximum activity of the assay’s reference compound.

In data set [13] the target is T4, TRβ.
Protocol: as §1, §2
evaluation of analysis results.
as §3, §4, §5, §6, §7, §8, §9, §10, §15, §16, §17, §18, §19, §20, §21, §22, §11
Setting [14] is: +S9 (preincubation with rat liver S9).

T1 sequence (P03372 whole entry): as the sequence (P03372 whole entry) above
Chain of EGFR Human RTK Kinase (P00533 25-1210): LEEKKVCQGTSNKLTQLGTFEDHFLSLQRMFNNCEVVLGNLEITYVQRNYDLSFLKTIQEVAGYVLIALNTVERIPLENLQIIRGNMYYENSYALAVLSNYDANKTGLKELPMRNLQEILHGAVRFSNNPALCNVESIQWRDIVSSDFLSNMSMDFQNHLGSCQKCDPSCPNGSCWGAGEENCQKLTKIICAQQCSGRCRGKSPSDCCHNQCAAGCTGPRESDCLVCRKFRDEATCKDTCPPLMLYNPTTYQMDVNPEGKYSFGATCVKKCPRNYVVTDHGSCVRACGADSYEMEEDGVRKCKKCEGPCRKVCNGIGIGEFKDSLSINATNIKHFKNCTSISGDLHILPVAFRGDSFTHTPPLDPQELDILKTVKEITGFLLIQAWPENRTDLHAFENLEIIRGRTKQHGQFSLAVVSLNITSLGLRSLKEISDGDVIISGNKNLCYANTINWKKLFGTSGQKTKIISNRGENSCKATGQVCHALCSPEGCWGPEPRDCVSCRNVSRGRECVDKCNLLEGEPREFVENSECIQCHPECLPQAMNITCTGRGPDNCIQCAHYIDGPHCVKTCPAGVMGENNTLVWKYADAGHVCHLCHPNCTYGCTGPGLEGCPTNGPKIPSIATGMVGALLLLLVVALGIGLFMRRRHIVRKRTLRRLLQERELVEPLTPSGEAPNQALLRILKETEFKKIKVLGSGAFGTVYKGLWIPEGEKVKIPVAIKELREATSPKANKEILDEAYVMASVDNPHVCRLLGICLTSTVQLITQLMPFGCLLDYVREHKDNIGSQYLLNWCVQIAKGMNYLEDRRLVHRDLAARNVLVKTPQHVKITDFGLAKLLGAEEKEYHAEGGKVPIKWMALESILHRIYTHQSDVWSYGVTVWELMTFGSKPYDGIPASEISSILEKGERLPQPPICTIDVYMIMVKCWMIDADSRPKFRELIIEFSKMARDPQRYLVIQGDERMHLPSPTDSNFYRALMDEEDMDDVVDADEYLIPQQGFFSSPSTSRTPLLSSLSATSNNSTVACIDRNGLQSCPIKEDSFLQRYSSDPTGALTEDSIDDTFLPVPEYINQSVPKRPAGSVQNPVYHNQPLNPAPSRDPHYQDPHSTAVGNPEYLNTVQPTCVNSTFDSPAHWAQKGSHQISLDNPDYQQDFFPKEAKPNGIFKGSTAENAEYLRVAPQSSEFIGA
Protocol for EGFR Human RTK Kinase: Chemicals that are flagged for a target are tested in follow-up dose-response assays to establish potency of the interaction.
as §18, §19, §20, §21, §22, §23, §24, §25, §26
(§27) the test compound was divided by the amount of estrogens and androgens produced by the solvent
(§28) control-exposed cells. A sample was considered ‘active’ if it decreased the hormone production 0.8-
Pharmacology profiling assays
targets. The list of targets included the original panel of 44 targets (including receptors, ion channels, […]
Protocol for H295R cells: as §12
was measured on a Berthold luminometer.
(§29) Serial dilutions of the compounds were incubated in Tris -buffer (pH 8.0) overnight at 4°C in the
(§30) incubation mixture). After incubation, TTR-bound and free T4 were separated on a Bio-Gel P-6DG
(§31) column. The eluate was added to assay medium after which TRβ CALUX cells were exposed for 24 h
For this TRβ CALUX exposure, serum-free assay medium was used.
wells plates in assay medium, and exposed for 48h to a serial dilution of the compound in triplicate
exposure, the assay medium was analysed on the ERα and AR CALUX bioassays as described
Changes in hormone levels compared to a vehicle control exposure
as §13, §14
compound for these assays, preincubations with rat liver S9 were performed. Compounds (10 μl
DMSO stock solution) were incubated for 0 h (control) or 3 h (test condition) in a total volume of 1
ml TRIS buffer in the presence of 1% (v/v) PB/BNF induced rat liver S9 mix (including NADPH and
an NADPH-regenerating system). After incubation, the reaction was stopped by the addition of ice
cold acetone, and samples were frozen to stimulate protein precipitation. After thawing, the
precipitated protein fraction was subsequently removed by centrifugation. The supernatant, cont aining
the metabolites and any remaining non-metabolised parent compound, was concentrated under a
gentle nitrogen flow. After evaporating to dryness, the sample was taken up in 50 μl DMSO followed
by the addition of 50 μl TRIS buffer. This extract was used for the exposure of the hTPO inhibition,
as §18, §19, §20, §21, §22, §23, §24, §25, §26, §27, §28
Protocol for Transthyretin (TTR): DMSO (1% compound stock in incubation mixture). The incubation mixture was transferred to 96 -
was measured on a Berthold luminometer.
as §29, §30, §31
(see CALUX bioassays). For this TRβ CALUX exposure, serum-free assay medium was used.

`O=c1c(-c2ccc(O)cc2)coc2cc(O)ccc12` [Daidzein, DAIDZEIN]: the “Anti-ERα antiestrogen LOEC, +S9” value on ERα receptor [1] (+S9 (rat liver)) was >−5 Log M. For the same molecule, the “Anti-ERα antiestrogen LOEC, −S9” value on ERα receptor [1] (−S9) is given as >−5 Log M. Moreover, in the data set with THRα, the “Thyroid pathway: Receptor binding (THRα), Call” value is “Neg (Neg = negative result)”. Also, at Estrogen ERα (h) [2], the “ERα LOEC (binding to receptor)” value is 35 nM and 35.2 nM. Also, the “LOEC, ERα CALUX assay” value at ERα receptor [3] was determined as 110 ± 18 nM. In addition, the “ERα receptor LOEC, +S9” value on ERα receptor [3] (+S9 (rat liver)) is −7.0 Log M. For the same molecule, at ERα receptor [3] (CALUX ERα, with rat liver S9), the “LOEC, ERα + S9” value was 100 ± 0.0 nM and 100 ± 0 nM and 100 nM. The “LOEC, ERα − S9” value on ERα receptor [3] (CALUX ERα, without S9) was determined as 110 nM. Further, the “NOEC (in vitro PoD) = ERα CALUX LOEC divided by 3” value on ERα receptor [3] (estimated from LOEC + S9) was 33 nM. The “ERα receptor LOEC, −S9” value on ERα receptor [3] (−S9) was −6.9 Log M. Also, the inhibition at 10 µM at EGFR Human RTK Kinase was 17.8%; at Estrogen ERα (h) [5], 100%. In data set [4] (0.02% daidzein), the “BERs derived using unbound plasma concentrations” value is 100–250. The “BER, Cmax, total CI5%” value in data set [4] (body lotion with 0.02% daidzein) is 10/0.68 = 14.7; in data set [4] (body lotion with 0.1% daidzein), 10/3.37 = 3.0. Also, in [6], the “Highest measured plasma concentration” value was 3.14 µM.

Turning to `O=c1c(-c2ccc(O)cc2)coc2cc(O)cc(O)c12` [Genistein, 5,7-DIHYDROXY-3-(4-HYDROXYPHENYL)-4-BENZOPYRONE], the “pKa (dissociation constant)” value in [7] is 7.25 ± 0.84. The “Estrogen synthesis, Increase/decrease” value in the data set with H295R cells is on record as “No effect”. In addition, the “Steroidogenesis (ERα) 17β-estradiol LOEC, +S9” value in the data set on H295R cells (setting [14]) is >−6.7 Log M. The “Steroidogenesis (ERα) 17β-estradiol LOEC, −S9” value with H295R cells (−S9) is given as >−6 Log M. For the same molecule, in the data set on mice [8], the “In vivo DNA damage/Comet assay result” value was “Negative in mice after oral administration”. Moreover, the “TTR LOEC, Inhibition of binding of T4 to TTR” value on Transthyretin (TTR) is listed as 0.21 µM. Besides, the “TTR binding (thyroid) LOEC, +S9” value on Transthyretin (TTR) (setting [14]) was −6.7 Log M. In addition, at Transthyretin (TTR) (inhibition of binding of T4 to TTR), the “LOEC for inhibition of TTR binding” value is 2.1 × 10^−7 ± 6.7 × 10^−8. For the same molecule, on Transthyretin (TTR) (−S9), the “TTR binding (thyroid) LOEC, −S9” value is listed as −6.7 Log M. In data set [9], the “LOEC for hTPO inhibition” value is 19 ± 8.9 µM and the “TPO LOEC, Inhibition” value worked out at 19 µM. Besides, the “hTPO inhibition (thyroid) LOEC, +S9” value in [9] (setting [14]) was >−4.7 Log M. Further, the “hTPO inhibition (thyroid) LOEC, −S9” value in [9] (−S9) is recorded as −4.7 Log M. For the same molecule, the “NOAEL, 13 weeks” value in the data set with rats (male and female rats, feed 0, 5, 50 or 500 mg/kg/day, ref McClain et al. 2006) is recorded as 50 mg/kg/day. Also, the “NOAEL, 52 weeks” value in the data set with rats (male and female rats, feed, based on mild hepatic effects, ref McClain et al. 2006) is given as 50 mg/kg/day. Further, the “NOAEL from repeat dose studies” value in the data set on rats (ref McClain et al., 2006) is recorded as “above 50 mg/kg/day”. Moreover, in the data set on dogs, the “NOAEL, 4 weeks” value is listed as > 500 mg/kg/day and the “NOAEL, 52 weeks” value is > 500 mg/kg/day. For the same molecule, the “Cell transformation assay (SHE cells) result” value in [10] is reported as “one was positive”. Besides, the “P53-/- Mouse Tumorigenesis Assay result” value in the data set on mice [11] was “negative”. Besides, the “TRß thyroid LOEC, +S9” value at TRβ [12] (+S9 (rat liver)) was >−5 Log M. In addition, the “TRβ Agonist/antagonist effect” value at TRβ [12] (CALUX) is recorded as “did not activate or antagonize the thyroid receptor-β; also recorded: No effect”. Further, the “TRß thyroid LOEC, −S9” value at TRβ [12] (−S9) is reported as >−5 Log M. For the same molecule, at TRβ [13] (+S9 (rat liver)), the “Anti-TRß antithyroid LOEC, +S9” value is >−5 Log M. Moreover, the “Anti-TRß antithyroid LOEC, −S9” value at TRβ [13] (−S9) is given as >−5 Log M.
